Earlier results in patent US20260015580A1, “Methods of Producing and Using Avian Embryonic Stem Cells and Avian Telencephalic Organoids” (The Regents of the University of California, priority 2022, published 2026).
pIC50: −log10 of the molar value.

Tested on: phosphorylation of ERK in C26 cells
Conditions: read-out: IC50, suppressing the phosphorylation of ERK

O=C(NOC[C@H](O)CO)c1ccc(F)c(F)c1Nc1ccc(I)cc1F [PD0325901]
pIC50: 9.48
